Earlier results in patent US5989558A, “Method of using rosmarinus officinalis for treating various diseases” (priority 1997, dated 1999).
Read-outs that look alike come from different tables or passages of the source.

Key:
[1] = 400 mg three times a day

Compound | nausea as side effect (treatment of dizziness, poor hearing, and tinnitus) | nausea as side effect (in vivo) | ulcers healed ([1]; after 60 days) [ulcers] | further ulcer healed ([1]; after 120 days) | patients able to complete the six month program ([1]; of 12 patients, limited by side effects) [patients] | ulcer size reduction ([1]; one ulcer, after six months)
Fc1ccc(C(c2ccc(F)cc2)N2CCN(C/C=C/c3ccccc3)CC2)cc1 [flunarizine] | all of the drugs cause nausea | – | – | – | – | –
CC(=O)CCCCn1c(=O)c2c(ncn2C)n(C)c1=O [pentoxifylline] | – | all of the drugs cause nausea | 7 | Another ulcer healed after 120 days | 9 | reduced in size from 4 cm to 2 cm
